The record followed here is patent US20250026724A1, “(1,4,5-TRISUBSTITUTED 1H-PYRAZOL-3-YL)OXY-2-ALKYLTHIOALKYL ACIDS AND -ALKYL ACID DERIVATIVES, SALTS THEREOF AND USE THEREOF AS ACTIVE HERBICIDAL INGREDIENTS” (BAYER AKTIENGESELLSCHAFT, priority 2021, published 2025).

Common to all, as to test: Post-emergence herbicidal action, greenhouse pot trial
Assay type in all cases: in vivo

The test system of experiment [1] is Abutilon theophrasti (ABUTH). The note with it: visual rating after about 3 weeks. Here is the method: (§1) Seeds of monocotyledonous and dicotyledonous weeds and crop plants are placed in sandy loam in plastic or organic planting pots, covered with soil and cultivated in a greenhouse under controlled growth conditions. 2 to 3 weeks after sowing, the trial plants are treated at the one-leaf stage. The compounds of the invention, formulated in the form of wettable powders (WP) or as emulsion concentrates (EC), are then sprayed onto the green parts of the plants as aqueous suspension or emulsion with addition of 0.5% additive at a water application rate equivalent to 600 l/ha. After about 3 weeks of keeping the trial plants in the greenhouse under optimum growth conditions, the effect of the preparations is rated visually in comparison to untreated controls. For example, 100% activity=the plants have died, 0% activity=like control plants.
(§2) Tables B1 to B14 below show the effects of selected compounds of the general formula (I) according to Table 1 on various harmful plants and at an application rate corresponding to 320 g/ha or lower, which were obtained by the trial procedure specified above. The appendices “a”, “b” and “c” give differentiation by dosage used with otherwise the same harmful plants tested.
(§3) As shown by results from Tables B1 to B19, inventive compounds of the general formula (I) in the case of post-emergence treatment have good herbicidal efficacy against harmful plants, for example Abutilon theophrasti (ABUTH), Alopecurus myosuroides (ALOMY), Amaranthus retroflexus (AMARE), Avena fatua (AVEFA), Digitaria sanguinalis (DIGSA), Echinochloa crus-galli (ECHCG), Bassia scoparia (KCHSC), Lolium rigidum (LOLRI), Matricaria inodora (MATIN), Pharbitis purpurea (PHBPU), Polygonum convolvulus (POLCO), Setaria viridis (SETVI), Veronica persica (VERPE) and Viola tricolor (VIOTR) at an application rate of 320 g of active substance or less per hectare, and good crop plant compatibility in the case of organisms such as Oryza sativa (ORYSA), Zea mays (ZEAMX), Brassica napus (BRSNW), Glycine max (GLXMA) and Triticum aestivum (TRZAS) at an application rate of 320 g or less per hectare.

The subject of experiment [2] is Alopecurus myosuroides (ALOMY). The note with it: Alopecurus myosuroides, 504 h, 320 g/ha, visual rating after about 3 weeks, read-out: Post-emergence effect at 320 g/ha against ALOMY in %. Here is the method:
as §1, §2, §3

Experiment [3] concerns Amaranthus retroflexus (AMARE). The note with it: visual rating after about 3 weeks; for pest or weed control at 80 g/ha / pest or weed control at 320 g/ha: Amaranthus retroflexus, 504 h; for pest or weed control at 80 g/ha: read-out: Post-emergence effect at 80 g/ha against AMARE in %; for pest or weed control at 320 g/ha: read-out: Post-emergence effect at 320 g/ha against AMARE in %. Here is the method:
as §1, §2, §3

The test system of experiment [4] is Avena fatua (AVEFA). The note with it: 320 g/ha, visual rating after about 3 weeks. As to the method:
as §1, §2, §3

Experiment [5] concerns Bassia scoparia (KCHSC). The note with it: 320 g/ha. As to the method:
as §1, §2, §3

The test system of experiment [6] is Digitaria sanguinalis (DIGSA). The note with it: visual rating after about 3 weeks; for pest or weed control at 320 g/ha: Digitaria sanguinalis, 504 h, read-out: Post-emergence effect at 320 g/ha against DIGSA in %. As to the method: as §1, §2, §3
Experiment [7] relates to Echinochloa crus-galli (ECHCG). The note with it: visual rating after about 3 weeks; for pest or weed control at 80 g/ha / pest or weed control at 320 g/ha: Echinochloa crus-galli, 504 h; for pest or weed control at 80 g/ha: read-out: Post-emergence effect at 80 g/ha against ECHCG in %; for pest or weed control at 320 g/ha: read-out: Post-emergence effect at 320 g/ha against ECHCG in %. Here is the method:
as §1, §2, §3

Experiment [8] deals with Matricaria inodora (MATIN). The note with it: visual rating after about 3 weeks; for pest or weed control at 320 g/ha: read-out: Post-emergence effect at 320 g/ha against MATIN in %. As to the method: as §1, §2, §3
The test system of experiment [9] is Pharbitis purpurea (PHBPU). The note with it: visual rating after about 3 weeks; for pest or weed control at 320 g/ha: Ipomoea purpurea, 504 h, read-out: Post-emergence effect at 320 g/ha against PHBPU in %. Here is the method:
as §1, §2, §3

Experiment [10] relates to Polygonum convolvulus (POLCO). The note with it: visual rating after about 3 weeks; for pest or weed control at 80 g/ha / pest or weed control at 320 g/ha: Fallopia convolvulus, 504 h; for pest or weed control at 80 g/ha: read-out: Post-emergence effect at 80 g/ha against POLCO in %; for pest or weed control at 320 g/ha: read-out: Post-emergence effect at 320 g/ha against POLCO in %. Here is the method: as §1, §2, §3

The subject of experiment [11] is Setaria viridis (SETVI). The note with it: visual rating after about 3 weeks; for pest or weed control at 320 g/ha: Setaria viridis, 504 h, read-out: Post-emergence effect at 320 g/ha against SETVI in %. Here is the method: as §1, §2, §3
Experiment [12] has as its system Viola tricolor (VIOTR). Here is the method:
as §1, §2, §3

Experiment [13] relates to Lolium rigidum (LOLRI). The note with it: Lolium rigidum, 504 h, 320 g/ha, visual rating after about 3 weeks, read-out: Post-emergence effect at 320 g/ha against LOLRI in %. Here is the method:
as §1, §2, §3

Setting [14] is: Tripleurospermum inodorum, 504 h, 320 g/ha.
Setting [15] is: Viola tricolor, 504 h, 320 g/ha, read-out: Post-emergence effect against VIOTR.

As to `CSC(Oc1nn(-c2ncccc2F)c(-c2ccc(F)nc2)c1Br)C(=O)O` (single isomer, unassigned) [Example I-25], the “Post-emergence effect at 320 g/ha against ABUTH in %” value in [1] (320 g/ha) is on record as 90%. Moreover, in experiment [2], the pest or weed control at 320 g/ha was found to be 90%. Moreover, the “Post-emergence effect at 320 g/ha against AMARE in %” value in experiment [3] (320 g/ha) was 90%. Further, the pest or weed control at 80 g/ha came out at 90% in [3], 80% in [7] and 80% in experiment [10]. The “Post-emergence effect at 320 g/ha against AVEFA in %” value in [4] was 90%. Further, the “Post-emergence effect against KCHSC” value in [5] was 90%. Also, in experiment [6], the “Post-emergence effect at 80 g/ha against DIGSA in %” value is listed as 80%. Also, in experiment [6] (320 g/ha), the “Post-emergence effect at 320 g/ha against DIGSA in %” value was 90%. In [7] (320 g/ha), the “Post-emergence effect at 320 g/ha against ECHCG in %” value stood at 90%. Further, the “Post-emergence effect at 320 g/ha against MATIN in %” value in [8] (320 g/ha) was 80%. Also, the “Post-emergence effect at 80 g/ha against PHBPU in %” value in [9] (80 g/ha) is listed as 90%. Further, the “Post-emergence effect at 320 g/ha against PHBPU in %” value in experiment [9] (320 g/ha) was determined as 90%. Moreover, the “Post-emergence effect at 320 g/ha against POLCO in %” value in experiment [10] (320 g/ha) amounted to 80%. Also, the “Post-emergence effect at 320 g/ha against SETVI in %” value in experiment [11] (320 g/ha) is 90%. The “Post-emergence effect against VIOTR” value in experiment [12] (320 g/ha) was 90%.

Take `CCOC(=O)C(Oc1nn(-c2ccccc2F)c(-c2ccc(F)nc2)c1Br)SC` (single isomer, unassigned) [Example I-30]: the pest or weed control at 320 g/ha was determined as 90% in experiment [2]; 90% in experiment [6] (320 g/ha); 80% in experiment [7] (320 g/ha); 80% in experiment [13]; 80% in [8] (setting [14]); 80% in [9] (320 g/ha). Also, the results for the pest or weed control at 320 g/ha in [11] (320 g/ha) and in [12] (setting [15]) were 80% and 90%, respectively. For the same molecule, the “Post-emergence effect at 80 g/ha against DIGSA in %” value in experiment [6] is on record as 80%. Further, in experiment [7], the pest or weed control at 80 g/ha was 80%.

Take `COC(=O)C(Oc1nn(-c2ccccc2F)c(-c2ccc(F)nc2)c1Br)SC` (stereo not drawn) [Example I-10]: the pest or weed control at 80 g/ha in [1] (Abutilon theophrasti, 504 h, 80 g/ha, read-out: Post-emergence effect at 80 g/ha against ABUTH in %) is 90%; in experiment [3], 80%; in experiment [7] it was 80%; in experiment [8] (Tripleurospermum inodorum, 504 h, 80 g/ha, read-out: Post-emergence effect at 80 g/ha against MATIN in %) it was 80%; in [10], 80%; in experiment [12] (Viola tricolor, 504 h, 80 g/ha, read-out: Post-emergence effect against VIOTR), 80%. For the same molecule, the pest or weed control at 320 g/ha in experiment [1] (Abutilon theophrasti, 504 h, 320 g/ha, read-out: Post-emergence effect at 320 g/ha against ABUTH in %) stood at 90%; in [2] it was 100%; in [3] (320 g/ha) it was 80%; in [6] (320 g/ha) it was 90%; in experiment [7] (320 g/ha), 90%; in experiment [13], 90%. In addition, the pest or weed control at 320 g/ha in experiment [8] (setting [14]) worked out at 90%; in experiment [9] (320 g/ha), 80%; in experiment [10] (320 g/ha), 80%; in experiment [11] (320 g/ha), 90%; in [12] (setting [15]) it was 90%. In addition, the “Post-emergence effect at 20 g/ha against AMARE in %” value in experiment [3] (20 g/ha) turned out to be 80%. In addition, in [6], the “Post-emergence effect at 80 g/ha against DIGSA in %” value was determined as 90%. For the same molecule, in experiment [11] (80 g/ha), the “Post-emergence effect at 80 g/ha against SETVI in %” value worked out at 90%.

Consider `CSC(Oc1nn(-c2ncccc2F)c(-c2ccc(F)nc2)c1Cl)C(=O)O` (stereo not drawn) [Example I-31], for which the pest or weed control at 320 g/ha came out at 80% in experiment [2]; 80% in experiment [3] (320 g/ha); 80% in experiment [4] (Avena fatua, 504 h, read-out: Post-emergence effect at 320 g/ha against AVEFA in %); 80% in experiment [6] (320 g/ha); 90% in experiment [7] (320 g/ha); 80% in [8] (setting [14]). Moreover, the pest or weed control at 320 g/ha in experiment [9] (320 g/ha), in experiment [10] (320 g/ha) and in experiment [11] (320 g/ha) was 80% each time. Also, in [7], the pest or weed control at 80 g/ha was 80%.
